Laboratory results taken from patent publication US12629388B2, “Intradialytic use of sodium nitrite” (Hope Medical Enterprises, Inc., priority 2017, dated 2026).
Where two headings read alike, the source gives them in different places.

Experiments:
[1] = Procedure: Example 1 was performed to determine the stability of sodium nitrite in aqueous solution when acid is added. A 100 mL sample of sodium nitrite solution with a concentration of 30 mg/mL was tested for the presence of nitrogen oxide gases (NO, NO2, N2O3, and N2O4) using an Orion Model 95-46 Nitrogen Oxide (NOx) electrode and a pH meter. With constant stirring, the mV reading with the NOx electrode and pH reading with the pH electrode were recorded after successive additions of 100 μL of either 0.02 N or 1 N hydrochloric acid.
[2] = pre-mixed 1 L dialysate, pH 7.32 at 24.4° C. after addition; expected 2.997 mg/L
Procedure: (§1) Concentration of nitrite in samples was assayed by ion chromatography. The ion chromatograph was equipped with a conductivity detector, self-regenerating suppression system, eluent generator, and a Dionex IonPacAS19 analytical column. The nitrite concentration in the samples was measured and calculated against an external sodium nitrite standard. USP Sodium Nitrite Reference Standard (Item Number 1614454) was the testing standard (United States Pharmacopeia. Rockville, Maryland).

[3] = dialysate bicarbonate concentrate; for Nitrite Concentration by Assay: room temperature, expected 38.1 mg/L
Procedure: as §1
Example 2 was performed to determine the stability of sodium nitrite in dialysate bicarbonate concentrate solution. At room temperature, 300 mg sodium nitrite was added to 7,700 mL of dialysate bicarbonate concentrate solution. The nitrite concentration of the dialysate bicarbonate concentrate solution was analyzed by ion chromatography 1) before addition of sodium nitrite; 2) 5 minutes after the addition of sodium nitrite; and 3) 2 hours after the addition of sodium nitrite.

[4] = mixed dialysate exiting Fresenius 2008K hemodialysis machine; expected 1.46 mg/L
Procedure: as §1
The machine was primed in bypass mode (dialysate and ultrafiltration rates set at zero) using normal saline.

[5] = during the first hour of hemodialysis; cited from earlier work
[6] = for Nitrite Concentration After Addition of Sodium Nitrite (Time = 60 Min): average of two samples
Procedure: as §1
Dialysate bicarbonate concentrate solution was prepared by adding 1 package of Centrisol® MB-330 Series Sodium Bicarbonate Concentrate powder (650 g) to 7.7 liters of purified water.
The hemodialysis machine mixed the bicarbonate concentrate solution and acid concentrate solution with the dilution ratio of 1 part of an acid concentrate solution, 1.72 parts of a bicarbonate concentrate solution, and 42.38 parts of purified water. The machine was primed in bypass mode (dialysate and ultrafiltration rates set at zero) using normal saline. After priming, the hemodialysis machine was run in “Therapy Mode” with the following settings: blood flow rate 300 ml/minute, dialysate flow rate 600 mL/minute, ultrafiltration rate 0 mL/minute.
An aqueous solution of sodium nitrite was prepared by dissolving 3 mg of sodium nitrite in 1 liter of purified water. […] This valve was placed in the dialysate tubing approximately eight inches upstream of the dialyzer (pre-filter). Two sampling ports were placed four inches upstream (pre-dialyzer sampling port) and ten inches downstream (post-dialyzer sampling port) from the dialyzer to collect samples of dialysate for […] assay by ion chromatography.
The infusion pump infused the sodium nitrite solution into the tubing through the valve at a rate of 250 mL/hour (4.16 mL/minute).
Normal saline flowed into the dialyzer at a rate of 300 mL/minute from the Arterial line and exited the dialyzer through the Venous line. Samples of saline were collected from the venous side of the dialyzer.

## O=NO [Sodium Nitrite, sodium nitrite]
[1]; 30 mg/mL solution, successive addition of hydrochloric acid, detection limit 1 ppm NOx
  pH at which nitrogen oxides was detected: 6.7
[1]; 100 mL solution, 30 mg/mL, before acid addition
  initial pH of the sodium nitrite solution: 8.73
[1]; at pH 4.9
  response of the Nitrogen Oxide electrode: 99.5 mV
[1]; at pH 6.7
  response of the Nitrogen Oxide electrode: 8.0 mV
[1]; extent of decomposition generally inversely proportional to the pH
  stability on exposure to acid (in words): decomposes when exposed to acid
[2]
  Nitrite Concentration by Assay: 1.149 mg/L
[3]; 5 minutes after addition
  Nitrate Concentration: None
  Nitrite Concentration by Assay: 38.0 mg/L
[3]; 2 hours after addition
  Nitrate Concentration: None
  Nitrite Concentration by Assay: 38.5 mg/L
[4]
  Nitrite Concentration by Assay: None
[5]
  decline of the concentration of nitrite in the plasma: over 60%
[6]; dialysate after dialyzer
  Nitrite Concentration After Addition of Sodium Nitrite (Time = 60 Min): 235 nM
[6]; dialysate before dialyzer, 3 mg/L solution infused at 250 mL/hour, dialysate flow 600 mL/minute
  Nitrite Concentration After Addition of Sodium Nitrite (Time = 60 Min): 451 nM
[6]; infused between the hemodialysis machine and the dialyzer membrane
  stability when mixed with dialysate within dialysate tubing (in words): stable
[6]; saline solution after dialyzer (venous side)
  Nitrite Concentration After Addition of Sodium Nitrite (Time = 60 Min): 183 nM
